We go through 22 compounds from patent publication US12503444B2, “Compound containing benzene ring and application thereof” (WUHAN LL SCIENCE AND TECHNOLOGY DEVELOPMENT CO., LTD., priority 2019, dated 2025).

Molecules are shown by their SMILES. Like-named read-outs stand apart in the source and are kept apart here.

The target of data set [1] is T1, hP2X4 (human purinergic P2X receptor subtype 4) (Homo sapiens, UniProt Q99571).
T1 sequence (Q99571 1-404 isoform Q99571-2): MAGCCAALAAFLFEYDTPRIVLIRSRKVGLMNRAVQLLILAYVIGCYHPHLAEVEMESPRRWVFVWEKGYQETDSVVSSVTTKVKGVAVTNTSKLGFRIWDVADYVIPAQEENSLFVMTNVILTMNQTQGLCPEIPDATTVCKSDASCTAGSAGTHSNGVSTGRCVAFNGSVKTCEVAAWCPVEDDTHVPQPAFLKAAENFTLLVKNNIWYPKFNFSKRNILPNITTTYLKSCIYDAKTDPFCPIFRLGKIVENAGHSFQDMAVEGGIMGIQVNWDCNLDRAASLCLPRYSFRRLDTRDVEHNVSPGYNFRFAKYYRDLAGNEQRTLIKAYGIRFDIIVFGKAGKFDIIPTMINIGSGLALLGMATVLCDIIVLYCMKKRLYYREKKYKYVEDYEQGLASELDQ
Kind of data set: FLIPR assay of intracellular calcium increase induced by activation of hP2X4 expressed in HEK293 cells (agonist BZ-ATP 2.5 μM). The note with it: HEK293 cells stably expressing hP2X4, FLIPR, read-out: P2X4 IC50. It is filed as cell-based. In short, it runs like this: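 HEK293 cells stably expressing hP2X4, loaded with Calcium 6 dye for 1.5 h at 37° C, then preincubated with compound 30 min at room temperature.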
On the technique in general: Calcium flux is commonly read through the fluorescence of an indicator in the cells.

Data set [2] is described as follows: In vitro metabolic stability, liver microsome incubation (human). It is filed as in vitro ADME. To be noted: human, liver microsomes, 1 mg/mL liver microsome protein, 37° C., read-out: T1/2 in human liver microsome min. The method, then: (§1) The in vitro metabolic stability of the compounds disclosed herein was determined through incubation of liver microsomes of various species. A proper amount of test compound was added into a liver microsome reaction system (1 mg/mL liver microsome protein, 25 U/mL glucose-6 phosphate dehydrogenase, 1 mM NADP, 6 mM D-glucose 6-phosphate and 5 mM MgCl2), and then the mixture was incubated in a water bath kettle at 37° C. to start the reaction. At each time point, 100 μL of the reaction system was added into a centrifuge tube containing 400 μL of internal standard working solution (containing a 200 ng/mL solution of dexamethasone, diclofenac, tolbutamide and labetalol in acetonitrile) precooled at 0° C. so as to stop the reaction, and the mixture was then centrifuged at 10,000 g for 10 min at 4° C. The supernatant was collected for LC-MS assay so as to obtain the values of in vitro metabolic half-life of the test compounds in liver microsomes of various species.
For orientation: Microsomes from liver hold many membrane-bound enzymes, among them those of drug oxidation.

Data set [3] can be described thus: In vitro cytotoxicity assay in HepG2 cells, CCK-8 method. The note with it: human.
Procedure: In vitro cytotoxicity assay for the compounds disclosed herein was performed in HepG2 cells using the CCK-8 method. HepG2 cells (Beina Bio) in the logarithmic growth phase were collected, the concentration of cell suspension was adjusted, and then the cells were plated on a 96-well cell culture plate at 50,000 cells/well. The cells were then incubated overnight in a cell incubator (5%/humidity, 37° C.), and after 80-90% cell confluence was achieved, test compounds or vehicle (DMSO) at various concentration gradients were added after medium change. The resulting mixture was incubated in the cell incubator (5% humidity, 37° C.) for 48 h. After the treatment, the medium in the plate was discarded. The plate was washed twice with PBS, added with CCK-8 working solution (Beyotime) at 100 μL per well, and then incubated at 37° C. for 1.5 h away from the light. Absorbance at OD450 nm was measured for each well on a microplate reader, and CC50 value of each compound was analyzed and calculated.
Data set [4] relates to Male Dunkin Hartley guinea pigs. The experiment in a line: Citric acid only cough model in guinea pigs. It counts as in vivo. The note with it: guinea pig, 17.5% citric acid. The method, then: Male Dunkin Hartley guinea pigs (300-350 g) were placed in an animal atomization box, and then the door of the atomization box was closed while the ultrasonic atomizer (Guangdong Yuehua) was turned on. 17.5% citric acid gas was introduced into the atomization box at a maximum atomization rate (about 2 mL/min) for 20 s, and coughs of the animals within 10 min were continuously observed from the time of the start of atomization. During the 10-min observation, coughs of the animals needed to be counted manually, and the number of coughs were judged according to cough postures of the guinea pigs, such as abdominal twitching, mouth opening, and head inclining downward abruptly. The number of coughs during the first 5 min and that during 10 min were recorded, and the cough latency of the guinea pigs, namely the time from the initiation of citric acid induction to the appearance of the 1st cough, was also recorded.
Cough inhibition rate Vs vehicle represents the percentage of reduction
[formula] in the number of coughs in the administration group compared to the vehicle group upon citric acid challenge; Cough inhibition rate Vs baseline represents the percentage of reduction
[formula] in the number of coughs in the administration group before and after administration.

A short description of data set [5]: In vitro metabolic stability, liver microsome incubation (rat). It is filed as in vitro ADME. To be noted: rat, liver microsomes; 1 mg/mL liver microsome protein, 37° C.; read-out: T1/2 in rat liver microsome min. The procedure:
as §1

[6] abbreviates: 60 mg/kg group, before administration (baseline).

Usually IC50 stands for the concentration needed to halve the response being measured. As usually defined, the CC50 is the concentration at which the toxic effect on the cells reaches its halfway point. Low values mean harm at low concentration, high ones better tolerance by the cells.

`CC(C)OCCn1cc2c(S(N)(=O)=O)cc(NC(=O)Cc3ccccc3Cl)cc2n1` [Compound 26-A, 2-(2-chlorophenyl)-N-(2-(2-isopropoxyethyl)-4-sulfamoyl-2H-indazol-6-yl)acetamide]: the IC50 in data set [1] (numeric values) was found to be 6.1 nM. For the same compound, the half-life in data set [2] was 2.09 h. In data set [3], this compound displayed a CC50 at 48 h of over 200000 nM.

Take `COc1ccc2c(c1)[C@]13CCCC[C@@H]1[C@H](C2)N(C)CC3` [Dextromethorphan, dextromethorphan, reference compound]: in data set [4] (60 mg/kg), the “Cough inhibition rate Vs vehicle (%)” value is on record as 33.95%. For the same compound, in data set [4] (setting [6]), the “Cough latency” value came to 73.43 s and the “Mean number of coughs” value was determined as 18.57. In addition, in data set [4] (60 mg/kg, after administration), the “Cough latency” value is given as 154.29 s and the “Mean number of coughs” value is 12.71. The “Cough inhibition rate Vs baseline (%)” value in data set [4] (60 mg/kg, before vs after administration) worked out at 31.54%.

Turning to `CC(C)CCn1cc2c(S(N)(=O)=O)cc(NC(=O)Cc3ccccc3Cl)cc2n1` [Compound 8-A, 2-(2-chlorophenyl)-N-(2-isopentyl-4-sulfamoyl-2H-indazol-6-yl)acetamide], the IC50 in data set [1] (numeric values) came to 13.9 nM. Besides, the half-life in data set [2] is 0.584 h. This compound registered a CC50 at 48 h in data set [3] of over 200000 nM.

Consider `NS(=O)(=O)c1cc(NC(=O)Cc2ccccc2Cl)cc2nn(CC3CCOC3)cc12` (centres unmarked) [Compound 110, 2-(2-chlorophenyl)-N-(4-sulfamoyl-2-((tetrahydrofuran-3-yl)methyl)-2H-indazol-6-yl)acetamide], for which the IC50 in data set [1] (class symbols) was 50 to 200 nM. The half-life is 1.15 h in data set [5] and 7.18 h in data set [2].

With `NS(=O)(=O)c1cc(NC(=O)Cc2ccccc2Cl)cc2nn(CC3CCOCC3)cc12` [Compound 141, 2-(2-chlorophenyl)-N-(4-sulfamoyl-2-((tetrahydro-2H-pyran-4-yl)methyl)-2H-indazol-6-yl)acetamide], the IC50 in data set [1] (class symbols) lay within 50 to 200 nM. The half-life in data set [5] was 0.226 h; in data set [2], 1.07 h.

Consider `NS(=O)(=O)c1cc(NC(=O)Cc2ccccc2Cl)cc2cn(CC3CC3)nc12` [Compound 47, 2-(2-chlorophenyl)-N-(2-(cyclopropylmethyl)-7-sulfamoyl-2H-indazol-5-yl)acetamide], for which the IC50 in data set [1] (numeric values) is 17 nM. Moreover, the half-life in data set [2] was determined as 13.1 h. In addition, the CC50 at 48 h in data set [3] is over 200000 nM.

As to `NS(=O)(=O)c1cc(NC(=O)Cc2ccccc2Cl)cc2c1cnn2CC1CCCO1` (centres unmarked) [Compound 120A, 2-(2-chlorophenyl)-N-(4-sulfamoyl-1-((tetrahydrofuran-2-yl)methyl)-1H-indazol-6-yl)acetamide], in data set [1] (class symbols), the IC50 was 50 to 200 nM. The half-life in data set [5] amounted to 0.137 h; in data set [2], 0.371 h.

Turning to `NS(=O)(=O)c1cc(NC(=O)Cc2ccccc2Cl)cc2c1cnn2CC1CCOC1` (centres unmarked) [Compound 110A, 2-(2-chlorophenyl)-N-(4-sulfamoyl-1-((tetrahydrofuran-3-yl)methyl)-1H-indazol-6-yl)acetamide], in data set [1] (class symbols), the IC50 lay in the range of 200 to 5000 nM. In addition, the half-life amounted to 0.335 h in data set [5] and 0.882 h in data set [2].

With `COc1cccc(Cn2ncc3c(S(N)(=O)=O)cc(NC(=O)Cc4ccccc4Cl)cc32)c1` [Compound 36-B, 2-(2-chlorophenyl)-N-(1-(3-methoxybenzyl)-4-sulfamoyl-1H-indazol-6-yl)acetamide], in data set [1] (class symbols), the IC50 is 10 to 50 nM. Further, in data set [2], the half-life came to 0.962 h.

For `NS(=O)(=O)c1cc(NC(=O)Cc2ccccc2Cl)cc2nn(CC(F)F)cc12` [Compound 12-A, 2-(2-chlorophenyl)-N-(2-(2,2-difluoroethyl)-4-sulfamoyl-2H-indazol-6-yl)acetamide], the IC50 in data set [1] (numeric values) came to 31 nM. Further, the half-life in data set [2] (symbol NA) is over 106 h. In data set [3], this compound displayed a CC50 at 48 h of over 200000 nM.

As to `COc1ccc(Cn2ncc3c(S(N)(=O)=O)cc(NC(=O)Cc4ccccc4Cl)cc32)cc1` [Compound 35-B, 2-(2-chlorophenyl)-N-(1-(4-methoxybenzyl)-4-sulfamoyl-1H-indazol-6-yl)acetamide], the IC50 in data set [1] (class symbols) was 10 to 50 nM. Moreover, the half-life in data set [2] was determined as 4.66 h. The CC50 at 48 h in data set [3] is over 200000 nM.

`Nc1ccc(Cn2cc3c(S(N)(=O)=O)cc(NC(=O)Cc4ccccc4Cl)cc3n2)cn1` [Compound 101, N-(2-((6-aminopyridin-3-yl)methyl)-4-sulfamoyl-2H-indazol-6-yl)-2-(2-chlorophenyl)acetamide]: the IC50 in data set [1] (class symbols) fell in the range of 10 to 50 nM. Also, in data set [2], the half-life was 1.86 h.

In the case of `NS(=O)(=O)c1cc(NC(=O)Cc2ccccc2Cl)cc2nn(CC3CCCO3)cc12` (centres unmarked) [Compound 120, 2-(2-chlorophenyl)-N-(4-sulfamoyl-2-((tetrahydrofuran-2-yl)methyl)-2H-indazol-6-yl)acetamide], the IC50 in data set [1] (class symbols) lay in the range of 50 to 200 nM. The values for the half-life in data set [5] and in data set [2] were 0.226 h and 1.06 h, respectively.

For `COc1cccc(Cn2cc3c(S(N)(=O)=O)cc(NC(=O)Cc4ccccc4Cl)cc3n2)c1` [Compound 36-A, 2-(2-chlorophenyl)-N-(2-(3-methoxybenzyl)-4-sulfamoyl-2H-indazol-6-yl)acetamide], the IC50 in data set [1] (class symbols) fell in the range of 10 to 50 nM. Besides, the half-life in data set [2] was found to be 1.44 h.

Regarding `C=CCn1ncc2c(S(N)(=O)=O)cc(NC(=O)Cc3ccccc3Cl)cc21` [Compound 14-B], the IC50 in data set [1] (class symbols) is at most 10 nM. The half-life in data set [2] is 1.61 h.

`CCC(F)(F)n1cc2c(S(N)(=O)=O)cc(NC(=O)Cc3ccccc3Cl)cc2n1` [Compound 133, 2-(2-chlorophenyl)-N-(2-(1,1-difluoropropyl)-4-sulfamoyl-2H-indazol-6-yl)acetamide]: the IC50 in data set [1] (class symbols) fell in the range of 10 to 50 nM. Also, the values for the half-life in data set [5] and in data set [2] were 2.26 h and 25 h, respectively. The compound further yielded a CC50 at 48 h in data set [3] of over 100000 nM.

For `COc1ccc(Cn2cc3c(S(N)(=O)=O)cc(NC(=O)Cc4ccccc4Cl)cc3n2)cc1` [Compound 35-A, 2-(2-chlorophenyl)-N-(2-(4-methoxybenzyl)-4-sulfamoyl-2H-indazol-6-yl)acetamide], the IC50 in data set [1] (class symbols) was in the range of 10 to 50 nM. Also, the half-life in data set [2] is 6.21 h. Besides, in data set [3], the CC50 at 48 h is over 200000 nM.

Consider `CCn1ncc2c(S(N)(=O)=O)cc(NC(=O)Cc3ccccc3Cl)cc21` [Compound 4-B, (4-sulfonamide-6-N-(2-chlorophenylacetyl)-1-ethyl)-indazole], for which the IC50 in data set [1] (class symbols) is at most 10 nM. In data set [2], the half-life stood at 1.23 h.

Regarding `NS(=O)(=O)c1cc(NC(=O)Cc2ccccc2Cl)cc2nn(CC3CCCC3)cc12` [Compound 31-A, 2-(2-chlorophenyl)-N-(2-(cyclopentylmethyl)-4-sulfamoyl-2H-indazol-6-yl)acetamide], in data set [1] (class symbols), the half-maximal inhibitory concentration (IC50) was at most 10 nM. Further, the half-life in data set [2] was 0.748 h.

Take `Cn1cc2c(S(N)(=O)=O)cc(NC(=O)Cc3ccccc3Cl)cc2n1` [Compound 3-A, 2-(2-chlorophenyl)-N-(2-methyl-4-sulfamoyl-2H-indazol-6-yl)acetamide]: the IC50 in data set [1] (numeric values) was found to be 4.9 nM. Moreover, the half-life in data set [2] amounted to 106 h.

With `COc1ccccc1Cn1cc2c(S(N)(=O)=O)cc(NC(=O)Cc3ccccc3Cl)cc2n1` [Compound 37-A, 2-(2-chlorophenyl)-N-(2-(2-methoxybenzyl)-4-sulfamoyl-2H-indazol-6-yl)acetamide], in data set [1] (class symbols), the IC50 lay in the range of 10 to 50 nM. In addition, in data set [2], the half-life came to 1.32 h.

Consider `C=CC(F)(F)n1cc2c(S(N)(=O)=O)cc(NC(=O)Cc3ccccc3Cl)cc2n1` [Compound 134, 2-(2-chlorophenyl)-N-(2-(1,1-difluoroallyl)-4-sulfamoyl-2H-indazol-6-yl)acetamide], for which the IC50 in data set [1] (class symbols) lay within 10 to 50 nM. Besides, the half-life in data set [5] was determined as 3.22 h; in data set [2] it was 13.7 h.
